Results as given in PubChem BioAssay AID1918995 (Molecular Pharmacology Branch, DTP, NCI, 2023).
Several values for one entry are separate records, joined by “and”; a condition that tells them apart may be missing. Equal entries are not always repeated. One block for each molecule: values may come before it.

System: 324938-238-R-J1-PDC complex spheroid growth, % test/control
Experiment: Anticancer human tumor 324938-238-R-J1-PDC patient-derived bladder carcinoma cell line growth inhibition [AhR]
Settings: for viability, T/C: stronger effect = lower value
Procedure, shortened: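 Agents were dosed in half-log steps down from roughly clinical Cmax, or from 10 microM where Cmax was unknown, alone and with AhR antagonists. Read-out: percent test/control growth of tumor spheroids containing HUVEC and MSC stromal cells.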

[1] = curve of first compound, second compound 0.1 µM
[2] = curve of first compound, second compound 0.316 µM
[3] = curve of first compound, second compound 1 µM
[4] = curve of first compound, second compound 3.16 µM
[5] = curve of first compound, second compound 10 µM
[6] = second compound 0.1 µM, first compound 0.0316 µM
[7] = second compound 0.1 µM, first compound 0.1 µM
[8] = second compound 0.316 µM, first compound 0.0316 µM
[9] = second compound 0.316 µM, first compound 0.1 µM
[10] = second compound 1 µM, first compound 0.0316 µM
[11] = second compound 1 µM, first compound 0.1 µM
[12] = second compound 3.16 µM, first compound 0.0316 µM
[13] = second compound 3.16 µM, first compound 0.1 µM
[14] = second compound 10 µM, first compound 0.0316 µM
[15] = second compound 10 µM, first compound 0.1 µM
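Also: spheroids exposed to agents for seven days before viability read.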

SMILES: COc1cc(C2c3cc4c(cc3C(OC3OC5COC(C)OC5C(O)C3O)C3COC(=O)C23)OCO4)cc(OC)c1O (centres undefined) + Cc1cncc(-c2nc(NCCc3c[nH]c4ccccc34)c3ncn(C(C)C)c3n2)c1
IC50 [1]: > 10000 nM
IC50 [2]: > 10000 nM
IC50 [3]: > 10000 nM
IC50 [4]: > 10000 nM
IC50 [5]: < 31.6 nM
viability, T/C [6]: 104%
viability, T/C [7]: 113%
viability, T/C (second compound 0.1 µM, first compound 0.316 µM): 96.8%
viability, T/C (second compound 0.1 µM, first compound 1 µM): 126%
viability, T/C (second compound 0.1 µM, first compound 3.16 µM): 106%
viability, T/C (second compound 0.1 µM, first compound 10 µM): 123%
viability, T/C [8]: 109%
viability, T/C [9]: 128%
viability, T/C (second compound 0.316 µM, first compound 0.316 µM): 109%
viability, T/C (second compound 0.316 µM, first compound 1 µM): 87.2%
viability, T/C (second compound 0.316 µM, first compound 3.16 µM): 95.1%
viability, T/C (second compound 0.316 µM, first compound 10 µM): 87.8%
viability, T/C [10]: 126%
viability, T/C [11]: 102%
viability, T/C (second compound 1 µM, first compound 0.316 µM): 84.9%
viability, T/C (second compound 1 µM, first compound 1 µM): 107%
viability, T/C (second compound 1 µM, first compound 3.16 µM): 103%
viability, T/C (second compound 1 µM, first compound 10 µM): 106%
viability, T/C [12]: 86%
viability, T/C [13]: 95.2%
viability, T/C (second compound 3.16 µM, first compound 0.316 µM): 94.2%
viability, T/C (second compound 3.16 µM, first compound 1 µM): 81.8%
viability, T/C (second compound 3.16 µM, first compound 3.16 µM): 106%
viability, T/C (second compound 3.16 µM, first compound 10 µM): 81.6%
viability, T/C [14]: 3.73%
viability, T/C [15]: 10.1%
viability, T/C (second compound 10 µM, first compound 0.316 µM): 6.66%
viability, T/C (second compound 10 µM, first compound 1 µM): 4%
viability, T/C (second compound 10 µM, first compound 3.16 µM): 6.93%
viability, T/C (second compound 10 µM, first compound 10 µM): 15%

SMILES: COc1cc(C2c3cc4c(cc3C(OC3OC5COC(C)OC5C(O)C3O)C3COC(=O)C23)OCO4)cc(OC)c1O (centres undefined)
viability, T/C (compound 0.0316 µM): 118% and 99.2% and 96.2%
viability, T/C (compound 0.1 µM): 101% and 103% and 86.9%
viability, T/C (compound 0.316 µM): 113% and 51.8% and 53%
viability, T/C (compound 1 µM): 97% and 31.6% and 32.9%
viability, T/C (compound 3.16 µM): 78.7% and 31.4% and 29.9%
viability, T/C (compound 10 µM): 95.9% and 19% and 20%

SMILES: Nc1ccn(C2OC(CO)C(O)C2(F)F)c(=O)n1 (centres undefined)
viability, T/C (compound 0.0316 µM): 68.2% and 32.2% and 53.2%
viability, T/C (compound 0.1 µM): 98.7% and 26% and 26.2%
viability, T/C (compound 0.316 µM): 79.8% and 18.3% and 16.4%
viability, T/C (compound 1 µM): 79.5% and 19.9% and 15.4%
viability, T/C (compound 3.16 µM): 87.5% and 17.6% and 11.5%
viability, T/C (compound 10 µM): 87.3% and 11.4% and 10.1%

Now from value to molecule, other results behind:

IC50 (compound alone, run of 07/26/2022): > 10000 nM
SMILES: Cc1ccccc1N=Nc1ccc(NC(=O)c2ccnn2C)c(C)c1
viability, T/C (compound 10 µM): 79.2% [middle of 20 runs]

IC50 [1]: > 100 nM
IC50 [2]: > 100 nM
IC50 [3]: > 100 nM
IC50 [4]: > 100 nM
IC50 [5]: < 0.316 nM
SMILES: CC[C@@]1(O)C(=O)OCc2c1cc1n(c2=O)Cc2cc3c(CN(C)C)c(O)ccc3nc2-1 + Cc1cncc(-c2nc(NCCc3c[nH]c4ccccc34)c3ncn(C(C)C)c3n2)c1
viability, T/C (second compound 0.1 µM, first compound 0.000316 µM): 108%
viability, T/C (second compound 0.1 µM, first compound 0.001 µM): 151%
viability, T/C (second compound 0.1 µM, first compound 0.00316 µM): 99.7%
viability, T/C (second compound 0.1 µM, first compound 0.01 µM): 117%
viability, T/C [6]: 83.3%
viability, T/C [7]: 102%
viability, T/C (second compound 0.316 µM, first compound 0.000316 µM): 70.6%
viability, T/C (second compound 0.316 µM, first compound 0.001 µM): 91.9%
viability, T/C (second compound 0.316 µM, first compound 0.00316 µM): 124%
viability, T/C (second compound 0.316 µM, first compound 0.01 µM): 93.2%
viability, T/C [8]: 77.8%
viability, T/C [9]: 93.5%
viability, T/C (second compound 1 µM, first compound 0.000316 µM): 116%
viability, T/C (second compound 1 µM, first compound 0.001 µM): 110%
viability, T/C (second compound 1 µM, first compound 0.00316 µM): 114%
viability, T/C (second compound 1 µM, first compound 0.01 µM): 93.4%
viability, T/C [10]: 87.6%
viability, T/C [11]: 96.9%
viability, T/C (second compound 3.16 µM, first compound 0.000316 µM): 97.8%
viability, T/C (second compound 3.16 µM, first compound 0.001 µM): 71.7%
viability, T/C (second compound 3.16 µM, first compound 0.00316 µM): 87.3%
viability, T/C (second compound 3.16 µM, first compound 0.01 µM): 90.9%
viability, T/C [12]: 79%
viability, T/C [13]: 79.4%
viability, T/C (second compound 10 µM, first compound 0.000316 µM): 5.23%
viability, T/C (second compound 10 µM, first compound 0.001 µM): 3.61%
viability, T/C (second compound 10 µM, first compound 0.00316 µM): 4.43%
viability, T/C (second compound 10 µM, first compound 0.01 µM): 3.43%
viability, T/C [14]: 3.79%
viability, T/C [15]: 10.3%
